Measurements published in US20020137929A1, “1 - (3-heterocyclylphenyl) isothiourea, -isourea, -guanidine and -amidine herbicidal agents” (Intellectual Property Department, BASF Aktiengesellschaft, priority 1998, published 2002).

Tests used:
[1] = test system: SAGPY (Arrowhead (Pygmaea)); assay: Postemergence weed control under flooded paddy conditions; assay type: in vivo, Sagittaria pygmaea; conditions: postemergence weeds, 3-4 weeks after treatment
Outline: (§1)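 Flood-water application, about 0.0313–0.500 kg/ha a.i. in aqueous/acetone 50/50 v/v; water depth 1.5–3 cm throughout. Weeds 3–5 cm, rice 1.5–2.5 leaf. Greenhouse; 0–9 visual rating vs control at 3–4 wk.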

CYPSE (Flatsedge) = assay: as above; assay type: in vivo, Cyperus serotinus; conditions: postemergence weeds, 3-4 weeks after treatment
Outline: as §1

ORYSAT (Rice, Tebonnet) = assay: Postemergence herbicidal evaluation; assay type: in vivo, Oryza sativa, (L.) Tebonnet
Outline: (§2)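 Young plants, roughly two weeks from seeding, receive the active ingredient as a sprayed dispersion (acetone/water 50/50, 0.5% TWEEN 20) at 40 psi. Doses span about 0.0156 to 0.500 kg/ha. A visual score from 0 to 9 compares treated with control plants four to five weeks on.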

CYPIR (Rice Flatsedge) [2] = assay: Preemergence weed control under flooded paddy conditions; assay type: in vivo, Cyperus iria; conditions: rated 3-4 weeks after treatment
Outline: (§3)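 Ratings on a 0-9 visual scale cover stand, vigor, malformation, size, chlorosis and overall appearance relative to a control, taken three to four weeks post-treatment. Application was into flood water over freshly sown silt loam at roughly 0.0313 to 0.500 kg/ha.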

ABUTH (Velvetleaf) = assay: Postemergence herbicidal evaluation; assay type: in vivo, Abutilon theophrasti
Outline: as §2

MOOVA (Monochoria) = assay: Preemergence weed control under flooded paddy conditions; assay type: in vivo, Monochoria vaginalis; conditions: rated 3-4 weeks after treatment
Outline: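 Seeds or propagules sown in top 0.5 cm of silt loam soil, flooded 1.5 to 3 cm above surface throughout. Compound in 50/50 v/v aqueous/acetone pipetted into flood water at about 0.0313 to 0.500 kg/ha. Visual 0-9 rating versus control after three to four weeks in greenhouse.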

ZEAMX (Corn, Field) = assay: Preemergence herbicidal evaluation; assay type: in vivo, Zea mays; conditions: rated 4-5 weeks after treatment
Outline: (§4)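 Visual 0-9 rating vs control (stand, vigor, malformation, size, chlorosis, overall appearance), scored 4-5 wk after spraying. Seeded soil cups were treated preemergence with compound in aqueous acetone, ~0.0156-0.500 kg/ha equivalent.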

ECHCG (Barnyardgrass) = assay: Postemergence herbicidal evaluation; assay type: in vivo, Echinochloa crus-galli
Outline: as §2

[3] = test system: TRZAWR (Wheat, Winter, cv Riband); assay: Preemergence herbicidal evaluation; assay type: in vivo, Triticum aestivum; conditions: rated 4-5 weeks after treatment
Outline: as §4

SETVI (Foxtail, Green) = assay: Postemergence herbicidal evaluation; assay type: in vivo, Setaria viridis
Outline: as §2

[4] = test system: ECHORC (Watergrass (Calif.)); assay: Preemergence weed control under flooded paddy conditions; assay type: in vivo, Echinochloa oryzoides; conditions: rated 3-4 weeks after treatment
Outline: as §3

CYPIR (Rice Flatsedge) [5] = assay: Postemergence weed control under flooded paddy conditions; assay type: in vivo, Cyperus iria; conditions: postemergence weeds, 3-4 weeks after treatment
Outline: as §1

GALAP (Galium) = assay: Postemergence herbicidal evaluation; assay type: in vivo, Galium aparine
Outline: as §2

[6] = test system: IPOHE (Morningglory, Ivyleaf); assay: Preemergence herbicidal evaluation; assay type: in vivo, Ipomoea hederacea; conditions: rated 4-5 weeks after treatment
Outline: as §4

Cn1c(C(F)(F)F)cc(=O)n(-c2cc(N=C3SCC(=O)N3CC(=O)NS(C)(=O)=O)c(Cl)cc2F)c1=O [Compound 38, 2-{{2-Chloro-5-[3,6-dihydro-3-methyl-2,6-dioxo-4-(trifluoromethyl)-1(2H)-pyrimidinyl]-4-fluoro-phenyl}imino}-N-(methylsulfonyl)-4-oxo-3-thiazolidineacetamide]
2.5: Postemergence herbicidal rating ORYSAT (ORYSAT (Rice, Tebonnet); Rate 0.0625 kg/ha)
3.0: Herbicidal rating SAGPY ([1]; rate 0.0625 kg/ha) | Herbicidal rating CYPSE (CYPSE (Flatsedge); rate 0.2500 kg/ha) | Herbicidal rating CYPIR (CYPIR (Rice Flatsedge) [2]; 0.0313 kg/ha) | Herbicidal rating CYPIR (CYPIR (Rice Flatsedge) [2]; 0.0625 kg/ha) | Postemergence herbicidal rating SETVI (SETVI (Foxtail, Green); Rate 0.0313 kg/ha) | Herbicidal rating CYPIR (CYPIR (Rice Flatsedge) [5]; rate 0.0313 kg/ha) | Herbicidal rating CYPIR (CYPIR (Rice Flatsedge) [5]; rate 0.0625 kg/ha) | Postemergence herbicidal rating GALAP (GALAP (Galium); Rate 0.0625 kg/ha) | Postemergence herbicidal rating GALAP (GALAP (Galium); Rate 0.1250 kg/ha)
1.0: Postemergence herbicidal rating GALAP (GALAP (Galium); Rate 0.0313 kg/ha)
5.0: Herbicidal rating CYPIR (CYPIR (Rice Flatsedge) [2]; 0.1250 kg/ha) | Herbicidal rating CYPIR (CYPIR (Rice Flatsedge) [2]; 0.2500 kg/ha) | Postemergence herbicidal rating ECHCG (ECHCG (Barnyardgrass); Rate 0.1250 kg/ha) | Postemergence herbicidal rating SETVI (SETVI (Foxtail, Green); Rate 0.0625 kg/ha) | Herbicidal rating CYPIR (CYPIR (Rice Flatsedge) [5]; rate 0.1250 kg/ha) | Herbicidal rating CYPIR (CYPIR (Rice Flatsedge) [5]; rate 0.2500 kg/ha) | Preemergence herbicidal rating IPOHE ([6]; rate 0.1250 kg/ha)
4.0: Herbicidal rating SAGPY ([1]; rate 0.1250 kg/ha) | Preemergence herbicidal rating ZEAMX (ZEAMX (Corn, Field); rate 0.2500 kg/ha) | Herbicidal rating ECHORC ([4]; 0.1250 kg/ha) | Preemergence herbicidal rating IPOHE ([6]; rate 0.0625 kg/ha)
0.0: Herbicidal rating SAGPY ([1]; rate 0.0313 kg/ha) | Herbicidal rating CYPSE (CYPSE (Flatsedge); rate 0.0313 kg/ha) | Herbicidal rating CYPSE (CYPSE (Flatsedge); rate 0.0625 kg/ha) | Herbicidal rating CYPSE (CYPSE (Flatsedge); rate 0.1250 kg/ha) | Preemergence herbicidal rating ZEAMX (ZEAMX (Corn, Field); rate 0.0313 kg/ha) | Preemergence herbicidal rating ZEAMX (ZEAMX (Corn, Field); rate 0.0625 kg/ha) | Preemergence herbicidal rating ZEAMX (ZEAMX (Corn, Field); rate 0.1250 kg/ha) | Postemergence herbicidal rating ECHCG (ECHCG (Barnyardgrass); Rate 0.0156 kg/ha) | Preemergence herbicidal rating TRZAWR ([3]; rate 0.0313 kg/ha) | Preemergence herbicidal rating TRZAWR ([3]; rate 0.0625 kg/ha) | Postemergence herbicidal rating SETVI (SETVI (Foxtail, Green); Rate 0.0156 kg/ha) | Herbicidal rating ECHORC ([4]; 0.0313 kg/ha) | Postemergence herbicidal rating GALAP (GALAP (Galium); Rate 0.0156 kg/ha) | Preemergence herbicidal rating IPOHE ([6]; rate 0.0313 kg/ha)
7.0: Preemergence herbicidal rating TRZAWR ([3]; rate 0.2500 kg/ha) | Herbicidal rating ECHORC ([4]; 0.2500 kg/ha)
0.5: Postemergence herbicidal rating ORYSAT (ORYSAT (Rice, Tebonnet); Rate 0.0156 kg/ha) | Postemergence herbicidal rating ORYSAT (ORYSAT (Rice, Tebonnet); Rate 0.0313 kg/ha)
2.0: Postemergence herbicidal rating ECHCG (ECHCG (Barnyardgrass); Rate 0.0313 kg/ha) | Postemergence herbicidal rating ECHCG (ECHCG (Barnyardgrass); Rate 0.0625 kg/ha) | Preemergence herbicidal rating TRZAWR ([3]; rate 0.1250 kg/ha) | Herbicidal rating ECHORC ([4]; 0.0625 kg/ha)
8.0: Postemergence herbicidal rating GALAP (GALAP (Galium); Rate 0.2500 kg/ha)
6.0: Postemergence herbicidal rating ORYSAT (ORYSAT (Rice, Tebonnet); Rate 0.1250 kg/ha)
9.0: Herbicidal rating SAGPY ([1]; rate 0.2500 kg/ha) | Postemergence herbicidal rating ABUTH (ABUTH (Velvetleaf); Rate 0.0156 kg/ha) | Postemergence herbicidal rating ABUTH (ABUTH (Velvetleaf); Rate 0.0313 kg/ha) | Postemergence herbicidal rating ABUTH (ABUTH (Velvetleaf); Rate 0.0625 kg/ha) | Postemergence herbicidal rating ABUTH (ABUTH (Velvetleaf); Rate 0.1250 kg/ha) | Postemergence herbicidal rating ABUTH (ABUTH (Velvetleaf); Rate 0.2500 kg/ha) | Herbicidal rating MOOVA (MOOVA (Monochoria); 0.0313 kg/ha) | Herbicidal rating MOOVA (MOOVA (Monochoria); 0.0625 kg/ha) | Herbicidal rating MOOVA (MOOVA (Monochoria); 0.1250 kg/ha) | Herbicidal rating MOOVA (MOOVA (Monochoria); 0.2500 kg/ha) | Postemergence herbicidal rating ECHCG (ECHCG (Barnyardgrass); Rate 0.2500 kg/ha) | Postemergence herbicidal rating SETVI (SETVI (Foxtail, Green); Rate 0.1250 kg/ha) | Postemergence herbicidal rating SETVI (SETVI (Foxtail, Green); Rate 0.2500 kg/ha) | Preemergence herbicidal rating IPOHE ([6]; rate 0.2500 kg/ha)
7.5: Postemergence herbicidal rating ORYSAT (ORYSAT (Rice, Tebonnet); Rate 0.2500 kg/ha)
